Results: patent US11739074B2, “Ras inhibitors” (Revolution Medicines, Inc., priority 2019, dated 2023)
Where two headings read alike, the source gives them in different places.

Legend:
AsPC-1 (K-Ras G12D) [1] = test: Potency assay: pERK in AsPC-1 cells; type: cell-based; conditions: Homo sapiens
NCI-H358 (K-Ras G12C) = test: CellTiter-Glo cell viability assay, H358; type: cell-based; conditions: Homo sapiens, NCI-H358, 120 h
Procedure, shortened: (§1)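 Cells already in plates received compound by direct dispensing. After incubation to day 5, plates sat at room temperature roughly 30 minutes, then ATP-based luminescence was measured and values derived from a four-parameter fit of DMSO-normalized data.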

AsPC-1 (K-Ras G12D) [2] = test: CellTiter-Glo cell viability assay, AsPC-1; type: cell-based; conditions: Homo sapiens, ASPC1, 120 h
Procedure, shortened: as §1

KRAS G13D = KRAS G13D (Homo sapiens, UniProt P01116+P62937, G13D); test: Ras-Raf disruption/FRET/MOA assay, KRAS G13D; type: biochemical
Sequence of KRAS G13D (P01116 1-169 isoform P01116-2 G13D limits assumed): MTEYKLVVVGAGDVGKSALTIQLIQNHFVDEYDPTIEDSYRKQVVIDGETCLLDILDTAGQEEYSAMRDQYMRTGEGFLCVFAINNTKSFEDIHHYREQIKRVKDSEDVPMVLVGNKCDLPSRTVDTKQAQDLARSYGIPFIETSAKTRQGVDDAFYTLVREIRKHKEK
Sequence of KRAS G13D (P62937 whole entry): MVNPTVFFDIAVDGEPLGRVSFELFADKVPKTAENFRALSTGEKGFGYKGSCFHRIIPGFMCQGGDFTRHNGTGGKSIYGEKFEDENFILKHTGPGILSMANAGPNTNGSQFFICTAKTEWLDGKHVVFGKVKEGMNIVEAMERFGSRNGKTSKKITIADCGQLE
Procedure, shortened: (§2)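 Buffer 25 mM HEPES pH 7.3, 100 mM NaCl, 5 mM MgCl2, 0.1% BSA, 0.002% Tween20; His6-KRAS-GMPPNP 12.5 nM, CypA 25 μM, GST-BRAF^RBD 50 nM; cpd 10-pt 3-fold from 30 μM; 3 h 25° C; then Eu/APC antibodies 1.5 h; TR-FRET ratio vs DMSO.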

KRAS G12S = KRAS G12S (Homo sapiens, UniProt P01116+P62937, G12S); test: Ras-Raf disruption/FRET/MOA assay, KRAS G12S; type: biochemical
Sequence of KRAS G12S (P01116 1-169 isoform P01116-2 G12S limits assumed): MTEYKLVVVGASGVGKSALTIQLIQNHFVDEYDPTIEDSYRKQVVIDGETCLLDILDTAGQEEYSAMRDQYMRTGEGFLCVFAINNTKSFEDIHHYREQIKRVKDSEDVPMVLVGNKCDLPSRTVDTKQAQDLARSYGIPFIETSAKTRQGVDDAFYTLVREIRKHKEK
Sequence of KRAS G12S (P62937 whole entry): as the sequence (P62937 whole entry) above
Procedure, shortened: as §2

KRAS G13C = KRAS G13C (Homo sapiens, UniProt P01116+P62937, G13C); test: Ras-Raf disruption/FRET/MOA assay, KRAS G13C; type: biochemical
Sequence of KRAS G13C (P01116 1-169 isoform P01116-2 G13C limits assumed): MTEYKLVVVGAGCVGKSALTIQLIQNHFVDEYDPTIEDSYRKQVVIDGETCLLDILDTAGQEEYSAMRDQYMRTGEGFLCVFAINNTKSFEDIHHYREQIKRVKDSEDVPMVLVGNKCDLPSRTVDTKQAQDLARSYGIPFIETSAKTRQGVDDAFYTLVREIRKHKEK
Sequence of KRAS G13C (P62937 whole entry): as the sequence (P62937 whole entry) above
Procedure, shortened: as §2

KRAS G12V = KRAS G12V (Homo sapiens, UniProt P01116+P62937, G12V); test: Ras-Raf disruption/FRET/MOA assay, KRAS G12V; type: biochemical
Sequence of KRAS G12V (P01116 1-169 isoform P01116-2 G12V limits assumed): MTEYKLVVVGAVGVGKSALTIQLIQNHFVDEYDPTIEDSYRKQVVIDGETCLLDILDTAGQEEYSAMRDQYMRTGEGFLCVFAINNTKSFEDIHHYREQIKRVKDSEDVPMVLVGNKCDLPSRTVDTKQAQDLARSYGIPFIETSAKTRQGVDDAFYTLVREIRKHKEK
Sequence of KRAS G12V (P62937 whole entry): as the sequence (P62937 whole entry) above
Procedure, shortened: as §2

KRAS G12D = KRAS G12D (Homo sapiens, UniProt P01116+P62937, G12D); test: Ras-Raf disruption/FRET/MOA assay, KRAS G12D; type: biochemical
Sequence of KRAS G12D (P01116 1-169 isoform P01116-2 G12D limits assumed): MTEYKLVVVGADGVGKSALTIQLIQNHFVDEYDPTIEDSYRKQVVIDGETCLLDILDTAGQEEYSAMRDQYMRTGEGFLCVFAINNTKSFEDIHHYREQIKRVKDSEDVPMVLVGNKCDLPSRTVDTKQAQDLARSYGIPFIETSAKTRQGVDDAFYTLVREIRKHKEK
Sequence of KRAS G12D (P62937 whole entry): as the sequence (P62937 whole entry) above
Procedure, shortened: as §2

KRAS WT = KRAS WT (Homo sapiens, UniProt P01116+P62937); test: Ras-Raf disruption/FRET/MOA assay, KRAS WT; type: biochemical
Sequence of KRAS WT (P01116 1-169 isoform P01116-2 limits assumed): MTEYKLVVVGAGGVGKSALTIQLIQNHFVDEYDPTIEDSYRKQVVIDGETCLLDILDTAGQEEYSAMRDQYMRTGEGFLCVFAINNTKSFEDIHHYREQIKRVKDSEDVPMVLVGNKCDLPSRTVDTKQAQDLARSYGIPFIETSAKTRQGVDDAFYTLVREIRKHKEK
Sequence of KRAS WT (P62937 whole entry): as the sequence (P62937 whole entry) above
Procedure, shortened: as §2

KRAS G12C = KRAS G12C (Homo sapiens, UniProt P01116+P62937, G12C); test: Ras-Raf disruption/FRET/MOA assay, KRAS G12C; type: biochemical
Sequence of KRAS G12C (P01116 1-169 isoform P01116-2 G12C limits assumed): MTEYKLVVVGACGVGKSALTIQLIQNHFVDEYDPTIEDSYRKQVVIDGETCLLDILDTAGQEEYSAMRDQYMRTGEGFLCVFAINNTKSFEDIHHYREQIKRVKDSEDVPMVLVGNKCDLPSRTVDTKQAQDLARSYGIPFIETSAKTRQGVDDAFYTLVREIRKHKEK
Sequence of KRAS G12C (P62937 whole entry): as the sequence (P62937 whole entry) above
Procedure, shortened: as §2

KRAS Q61H = KRAS Q61H (Homo sapiens, UniProt P01116+P62937, Q61H); test: Ras-Raf disruption/FRET/MOA assay, KRAS Q61H; type: biochemical
Sequence of KRAS Q61H (P01116 1-169 isoform P01116-2 Q61H limits assumed): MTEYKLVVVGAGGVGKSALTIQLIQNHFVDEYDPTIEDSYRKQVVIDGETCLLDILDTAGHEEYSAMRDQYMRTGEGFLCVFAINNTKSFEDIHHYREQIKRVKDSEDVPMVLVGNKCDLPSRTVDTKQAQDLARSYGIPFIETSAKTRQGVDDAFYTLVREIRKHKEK
Sequence of KRAS Q61H (P62937 whole entry, the tested form may be a part): as the sequence (P62937 whole entry) above
Description: (§3) Disruption of B-Raf Ras-Binding Domain (BRAF^RBD) Interaction with K-Ras by Compounds of the Invention (Also Called a FRET Assay or an MOA Assay)
(§4) Note—The following protocol describes a procedure for monitoring disruption of K-Ras G12C (GMP-PNP) binding to BRAF^RBD by a compound of the invention. This protocol may also be executed substituting other Ras proteins or nucleotides, such as K-Ras G12D and K-Ras G13D.
(§5) The purpose of this biochemical assay was to measure the ability of test compounds to facilitate ternary complex formation between a nucleotide-loaded K-Ras isoform and Cyclophilin A; the resulting ternary complex disrupts binding to a BRAF^RBD construct, inhibiting K-Ras signaling through a RAF effector.
(§6) In assay buffer containing 25 mM HEPES pH 7.3, 0.002% Tween20, 0.1% BSA, 100 mM NaCl and 5 mM MgCl2, tagless Cyclophilin A, His6-K-Ras-GMPPNP, and GST-BRAF^RBD were combined in a 384-well assay plate at final concentrations of 25 μM, 12.5 nM, and 50 nM, respectively. Compound was present in plate wells as a 10-point 3-fold dilution series starting at a final concentration of 30 μM. After incubation at 25° C. for 3 hours, a mixture of anti-His Eu-W1024 and anti-GST allophycocyanin was then added to assay sample wells at final concentrations of 10 nM and 50 nM, respectively, and the reaction incubated for an additional 1.5 hours. […] Compounds that facilitate disruption of a K-Ras:RAF complex were identified as those eliciting a decrease in the TR-FRET ratio relative to DMSO control wells.

NRAS G12C = molecular target: T1, NRAS G12C (Homo sapiens, UniProt P01111+P62937, G12C); test: Ras-Raf disruption/FRET/MOA assay, NRAS G12C; type: biochemical
T1 construct: His6
T1 sequence (P01111 whole entry G12C): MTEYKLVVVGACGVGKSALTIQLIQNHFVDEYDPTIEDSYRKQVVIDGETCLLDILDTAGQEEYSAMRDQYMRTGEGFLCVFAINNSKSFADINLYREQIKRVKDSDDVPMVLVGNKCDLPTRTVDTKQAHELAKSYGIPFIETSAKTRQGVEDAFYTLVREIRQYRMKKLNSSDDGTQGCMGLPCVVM
T1 sequence (P62937 whole entry): as the sequence (P62937 whole entry) above
Procedure, shortened: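 Disruption of Ras:RAF binding was read as a drop in TR-FRET ratio versus DMSO controls. The buffer was 25 mM HEPES pH 7.3, 0.002% Tween20, 0.1% BSA, 100 mM NaCl and 5 mM MgCl2. Compounds were tested as a 10-point 3-fold dilution series from 30 μM. Detection used 10 nM anti-His Eu-W1024 and 50 nM anti-GST allophycocyanin.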

NRAS WT = molecular target: T2, NRAS WT (Homo sapiens, UniProt P01111+P62937); test: Ras-Raf disruption/FRET/MOA assay, NRAS WT; type: biochemical
T2 construct: His6
T2 sequence (P01111 whole entry): as the sequence (P01111 whole entry G12C) above, with C12G counted along it
T2 sequence (P62937 whole entry): as the sequence (P62937 whole entry) above
Description: as §3, §4, §5, §6

NRAS Q61K = molecular target: T3, NRAS Q61K (Homo sapiens, UniProt P01111+P62937, Q61K); test: Ras-Raf disruption/FRET/MOA assay, NRAS Q61K; type: biochemical
T3 construct: His6
T3 sequence (P01111 whole entry Q61K): as the sequence (P01111 whole entry G12C) above, with C12G, Q61K counted along it
T3 sequence (P62937 whole entry): as the sequence (P62937 whole entry) above
Description: as §3, §4, §5, §6

NRAS Q61R = molecular target: T4, NRAS Q61R (Homo sapiens, UniProt P01111+P62937, Q61R); test: Ras-Raf disruption/FRET/MOA assay, NRAS Q61R; type: biochemical
T4 construct: His6
T4 sequence (P01111 whole entry Q61R): as the sequence (P01111 whole entry G12C) above, with C12G, Q61R counted along it
T4 sequence (P62937 whole entry): as the sequence (P62937 whole entry) above
Description: as §3, §4, §5, §6

[3] = ASPC1, AsPC-1 cells, K-Ras G12D, read-out: pERK EC50 (AsPC-1 KRAS G12D)
[4] = NCI-H358, K-Ras G12C, 5-day treatment, read-out: H358 Cell Viability IC50
[5] = AsPC-1, K-Ras G12D, 5-day treatment, read-out: AsPC-1 Cell Viability IC50
[6] = disruption of BRAF RBD binding, with Cyclophilin A, read-out: KRAS G13D FRET IC50
[7] = disruption of BRAF RBD binding, with Cyclophilin A, read-out: KRAS G12S FRET IC50
[8] = disruption of BRAF RBD binding, with Cyclophilin A, read-out: KRAS G13C FRET IC50
[9] = disruption of BRAF RBD binding, with Cyclophilin A, read-out: KRAS G12V FRET IC50
[10] = disruption of BRAF RBD binding, with Cyclophilin A, read-out: KRAS G12D FRET IC50
[11] = disruption of BRAF RBD binding, with Cyclophilin A, read-out: KRAS WT FRET IC50
[12] = disruption of BRAF RBD binding, with Cyclophilin A, read-out: KRAS G12C FRET IC50
[13] = KRAS Q61H, read-out: KRAS Q61H FRET data IC50
[14] = NRAS G12C, read-out: NRAS G12C FRET data IC50
[15] = NRAS WT, read-out: NRAS WT FRET data IC50
[16] = NRAS Q61K, read-out: NRAS Q61K FRET data IC50
[17] = NRAS Q61R, read-out: NRAS Q61R FRET data IC50

SMILES	EC50 (AsPC-1 (K-Ras G12D) [1]; [3]) [nM]	IC50 (NCI-H358 (K-Ras G12C); [4]) [nM]	IC50 (AsPC-1 (K-Ras G12D) [2]; [5]) [nM]	IC50 (KRAS G13D; [6]) [nM]	IC50 (KRAS G12S; [7]) [nM]	IC50 (KRAS G13C; [8]) [nM]	IC50 (KRAS G12V; [9]) [nM]	IC50 (KRAS G12D; [10]) [nM]	IC50 (KRAS WT; [11]) [nM]	IC50 (KRAS G12C; [12]) [nM]	IC50 (KRAS Q61H; [13]) [nM]	IC50 (NRAS G12C; [14]) [nM]	IC50 (NRAS WT; [15]) [nM]	IC50 (NRAS Q61K; [16]) [nM]	IC50 (NRAS Q61R; [17]) [nM]	other results
CCn1c(-c2cccnc2[C@H](C)OC)c2c3cc(ccc31)-c1csc(n1)C[C@H](NC(=O)[C@H](C(C)C)N(C)C(=O)N1C3CCC1CN(C(=O)[C@@H]1CN1)C3)C(=O)N1CCC[C@H](N1)C(=O)OCC(C)(C)C2 [Compound 304]	< 5000	100 to 1000	1000 to 10000	1000 to 10000	100 to 1000	1000 to 10000	100 to 1000	100 to 1000	100 to 1000	100 to 1000	10 to 100	100 to 1000	100 to 1000	100 to 1000	100 to 1000	
CCn1c(-c2cccnc2[C@H](C)OC)c2c3cc(ccc31)-c1csc(n1)C[C@H](NC(=O)[C@H](C(C)C)N(C)C(=O)N1CCC[C@@H](N(C)C(=O)[C@@H]3CN3)C1)C(=O)N1CCC[C@H](N1)C(=O)OCC(C)(C)C2 (atropisomer, axis not shown) [Compound 291]	< 5000	10 to 100	100 to 1000	100 to 1000	100 to 1000	100 to 1000	100 to 1000	100 to 1000	10 to 100	10 to 100	10 to 100	10 to 100	10 to 100	10 to 100	100 to 1000	
CCn1c(-c2cccnc2[C@H](C)OC)c2c3cc(ccc31)-c1cc(O)cc(c1)C[C@H](NC(=O)[C@H](C(C)C)N1CCCC3(CN(C(=O)[C@H]4CN4)C3)C1=O)C(=O)N1CCC[C@H](N1)C(=O)OCC(C)(C)C2 [Compound 307]	< 5000	< 10	100 to 1000	10 to 100	10 to 100	10 to 100	10 to 100	100 to 1000	10 to 100	< 10	10 to 100	< 10	10 to 100	100 to 1000	100 to 1000	
CCn1c(-c2cc(N3CCN(C)CC3)cnc2[C@H](C)OC)c2c3cc(ccc31)-c1csc(n1)C[C@H](NC(=O)[C@H](C1CCCC1)N1CC[C@]3(CCN(C(=O)[C@@H]4N[C@@H]4C4CC4)C3)C1=O)C(=O)N1CCC[C@H](N1)C(=O)OCC(C)(C)C2 [Compound 324]	< 5000	< 10	10 to 100	1000 to 10000	100 to 1000	100 to 1000	100 to 1000	100 to 1000	100 to 1000	100 to 1000	100 to 1000	100 to 1000	100 to 1000	100 to 1000	100 to 1000	
CCC(C)N(C)C(=O)c1cncc(-c2c3c4cc(ccc4n2CC)-c2cc(O)cc(c2)C[C@H](NC(=O)[C@H](C(C)C)N(C)C(=O)CN(C)C(=O)[C@H]2CN2)C(=O)N2CCC[C@H](N2)C(=O)OCC(C)(C)C3)c1 (stereo partly drawn) [Compound 144]																EC50 (AsPC-1 (K-Ras G12D) [1]; ASPC1, read-out: pERK EC50 (AsPC-1 KRAS G12D)): < 5000 nM; IC50 (NCI-H358 (K-Ras G12C); read-out: H358 Cell Viability IC50, NCI-H358, K-Ras G12C, 5-day treatment): 10 to 100 nM; IC50 (AsPC-1 (K-Ras G12D) [2]; read-out: AsPC-1 Cell Viability IC50, AsPC-1, K-Ras G12D, 5-day treatment): 100 to 1000 nM; IC50 (KRAS G13D): 100 to 1000 nM; IC50 (KRAS G12S): 100 to 1000 nM; IC50 (KRAS G13C): 10 to 100 nM; IC50 (KRAS G12V): 100 to 1000 nM; IC50 (KRAS G12D): 100 to 1000 nM; IC50 (KRAS WT): 100 to 1000 nM; IC50 (KRAS G12C): 10 to 100 nM; IC50 (KRAS Q61H): 10 to 100 nM; IC50 (NRAS G12C; NRAS G12C FRET data IC50, NRAS G12C): 10 to 100 nM; IC50 (NRAS WT): 100 to 1000 nM; IC50 (NRAS Q61K): 1000 to 10000 nM; IC50 (NRAS Q61R): 1000 to 10000 nM
